Source: ChEMBL document CHEMBL5608163, “Structure modification of anoplin for fighting resistant bacteria” (Eur J Med Chem, 2024)
Values after ≈ are worked out from the molar mass of the structure shown. Square brackets hold non-standard residues; d marks the D form. Peptide text beside a SMILES is read from it. 2Nal = N[C@@H](Cc1ccc2ccccc2c1)C(=O)O; hIle = CC[C@H](C)C[C@H](N)C(=O)O; Cha = N[C@@H](CC1CCCCC1)C(=O)O

Tests used:
Erythrocyte [1] = experiment: Hemolytic activity in mouse Red blood cells incubated for 1 hr by microplate reader assay; type: toxicity, cell-based; details: erythrocyte, 1 h
Erythrocyte [2] = experiment: Hemolytic activity in mouse erythrocyte assessed as hemolysis incubated for 1 hr by microplate reader analysis; type: toxicity, cell-based
Klebsiella pneumoniae = experiment: Antibacterial activity against Klebsiella pneumoniae ATCC 700603 assessed as reduction in bacterial growth incubated for 18 hrs by CLSI-based Mueller-Hinton broth dilution method; type: functional
Bacillus subtilis [3] = experiment: Antibacterial activity against Bacillus subtilis ATCC 23857 assessed as reduction in bacterial growth incubated for 18 hrs by CLSI-based Mueller-Hinton broth dilution method; type: functional
Acinetobacter baumannii = experiment: Antibacterial activity against Acinetobacter baumannii ATCC 19606 assessed as reduction in bacterial growth incubated for 18 hrs by CLSI-based Mueller-Hinton broth dilution method; type: functional
Pseudomonas aeruginosa [4] = experiment: Antibacterial activity against Pseudomonas aeruginosa ATCC 27853 assessed as reduction in bacterial growth incubated for 18 hrs by CLSI-based Mueller-Hinton broth dilution method; type: functional
Escherichia coli [5] = experiment: Antibacterial activity against Escherichia coli ML-35 ATCC 43837 assessed as reduction in bacterial growth incubated for 18 hrs by CLSI-based Mueller-Hinton broth dilution method; type: functional
[6] = tested on: Staphylococcus epidermidis; experiment: Antibacterial activity against Staphylococcus epidermidis ATCC 12228 assessed as reduction in bacterial growth incubated for 18 hrs by CLSI-based Mueller-Hinton broth dilution method; type: functional
Staphylococcus aureus [7] = experiment: Antimicrobial activity against Staphylococcus aureus ATCC 25923 assessed as reduction in microbial growth incubated for 18 hrs by CLSI-based Mueller-Hinton broth dilution method; type: functional
Bacillus subtilis [8] = experiment: Antibacterial activity against Bacillus subtilis ATCC 23857 assessed as reduction in bacterial growth incubated for 18 to 20 hrs by Mueller Hinton broth dilution method; type: functional; details: time 18-20 hrs
Escherichia coli [9] = experiment: Antibacterial activity against Escherichia coli ATCC 25922 assessed as reduction in bacterial growth incubated for 18 to 20 hrs by Mueller Hinton broth dilution method; type: functional; details: time 18-20 hrs
Staphylococcus aureus [10] = experiment: Antibacterial activity against Staphylococcus aureus ATCC 25923 assessed as reduction in bacterial growth incubated for 18 to 20 hrs by Mueller Hinton broth dilution method; type: functional; details: time 18-20 hrs
Pseudomonas aeruginosa [11] = experiment: Antibacterial activity against Pseudomonas aeruginosa ATCC 27853 assessed as reduction in bacterial growth incubated for 18 to 20 hrs by Mueller Hinton broth dilution method; type: functional; details: time 18-20 hrs
Pseudomonas aeruginosa [12] = experiment: Antibacterial activity against Pseudomonas aeruginosa ATCC 27853 assessed as reduction in microbial growth incubated for 16 to 20 hrs by CLSI protocol based Muller Hinton broth assay; type: functional; details: time 16-20 hrs
Enterococcus faecium = experiment: Antibacterial activity against vancomycin resistant Enterococcus faecium ATCC 700221 assessed as inhibition of bacterial growth incubated for 48 hrs by CLSI-based broth microdilution assay; type: functional
Staphylococcus aureus [13] = experiment: Antibacterial activity against methicillin-resistant Staphylococcus aureus ATCC 33591 assessed as reduction in bacterial growth incubated for 18 hrs by agar dilution method; type: functional
[14] = Hemolytic activity in human RBC assessed as hemolysis measured after 24 hrs; type: toxicity, cell-based, Erythrocyte; details: red blood cells
Escherichia coli [15] = experiment: Antibacterial activity against Escherichia coli ATCC 25922 assessed as reduction in microbial growth incubated for 16 to 20 hrs by CLSI protocol based Muller Hinton broth assay; type: functional; details: time 16-20 hrs

| SMILES | MIC (Pseudomonas aeruginosa [12]) | MIC (Enterococcus faecium) | MIC (Staphylococcus aureus [13]) | HC50 at 24 h [14] | MIC (Escherichia coli [15]) | other results |
| --- | --- | --- | --- | --- | --- | --- |
| CC[C@H](C)[C@H](NC(=O)[C@H](CCCNC(=N)N)NC(=O)[C@@H](CCCCN)NC(=O)[C@H](CC(C)C)NC(=O)[C@H](CC(C)C)NC(=O)CN)C(=O)N[C@@H](CCCCN)C(=O)N[C@@H](C(=O)N[C@@H](CC(C)C)C(=O)N[C@@H](CC(C)C)C(N)=O)[C@H](C)O | – | – | – | – | – | HC10 (Erythrocyte [1]): > 300 µM |
| CCCCCCCCCCCCCCCCC(=O)NCCCC[C@@H](NC(=O)[C@@H](NC(=O)[C@H](CCCNC(=N)N)NC(=O)[C@@H](CCCCN)NC(=O)[C@H](CC(C)C)NC(=O)[C@H](CC(C)C)NC(=O)CN)[C@@H](C)CC)C(=O)N[C@H](C(=O)N[C@@H](CC(C)C)C(=O)N[C@@H](CC(C)C)C(N)=O)[C@@H](C)O | – | – | – | – | – | HC10 (Erythrocyte [2]): 16 µM; MIC (Klebsiella pneumoniae): 64 µM (≈ 90 µg/mL); MIC (Bacillus subtilis [3]): 16 µM (≈ 22.5 µg/mL); MIC (Acinetobacter baumannii): 16 µM (≈ 22.5 µg/mL); MIC (Pseudomonas aeruginosa [4]): 64 µM (≈ 90 µg/mL); MIC (Escherichia coli [5]): 64 µM (≈ 90 µg/mL); MIC [6]: 32 µM (≈ 45 µg/mL); MIC (Staphylococcus aureus [7]): 64 µM |
| CC(C)C[C@@H](NC(=O)[C@@H](CC(C)C)NC(=O)[C@@H](CCCCN)NC(=O)[C@@H](CCCCN)NC(=O)[C@@H](Cc1c[nH]c2ccccc12)NC(=O)[C@@H](CCCNC(=N)N)NC(=O)[C@@H](CCCCN)NC(=O)[C@@H](CC(C)C)NC(=O)[C@@H](CC(C)C)NC(=O)[C@H](N)Cc1c[nH]c2ccccc12)C(N)=O | – | – | – | – | – | MIC (Bacillus subtilis [8]): 4 µM (≈ 5.53 µg/mL); MIC (Escherichia coli [9]): 8 µM (≈ 11.1 µg/mL); MIC (Staphylococcus aureus [10]): 16 µM (≈ 22.1 µg/mL); MIC (Pseudomonas aeruginosa [11]): 8 µM (≈ 11.1 µg/mL); HC10 (Erythrocyte [1]): > 200 µM |
| CC[C@H](C)[C@H](NC(=O)[C@H](Cc1ccccc1)NC(=O)[C@H](CCCCN)NC(=O)[C@H](CC(C)C)NC(=O)[C@H](CC(C)C)NC(=O)CN)C(=O)N[C@@H](CCCCN)C(=O)N[C@@H](Cc1c[nH]c2ccccc12)C(=O)N[C@@H](CC(C)C)C(=O)N[C@@H](CC(C)C)C(N)=O (H-GLLKFIKWLL-NH2) | 256 µM | 0.8 µM (≈ 0.984 µg/mL) | 7.4 µM (≈ 9.1 µg/mL) | 0.6 µM | 22.1 µM | – |
| CC(C)C[C@H](NC(=O)[C@H](CC(C)C)NC(=O)[C@@H](NC(=O)[C@H](CCCCN)NC(=O)[C@H](Cc1ccc2ccccc2c1)NC(=O)[C@H](CCCNC(=N)N)NC(=O)[C@H](CCCCN)NC(=O)[C@H](CC(C)C)NC(=O)[C@H](CC(C)C)NC(=O)CN)[C@@H](C)O)C(N)=O (H-GLLKR[2Nal]KTLL-NH2) | 28.4 µM | 28.4 µM (≈ 35.1 µg/mL) | 85.3 µM (≈ 106 µg/mL) | > 500 µM | 28.4 µM | – |
| CC(C)C[C@H](NC(=O)[C@H](CC(C)C)NC(=O)[C@@H](NC(=O)[C@H](CCCCN)NC(=O)[C@H](CC1CCCCC1)NC(=O)[C@H](CCCNC(=N)N)NC(=O)[C@H](CCCCN)NC(=O)[C@H](CC(C)C)NC(=O)[C@H](CC(C)C)NC(=O)CN)[C@@H](C)O)C(N)=O (H-GLLKR[Cha]KTLL-NH2) | 15.8 µM | 6 µM (≈ 7.16 µg/mL) | 28.4 µM (≈ 33.9 µg/mL) | 304 µM | 28.4 µM | – |
| CC[C@H](C)C[C@H](NC(=O)[C@H](CCCNC(=N)N)NC(=O)[C@H](CCCCN)NC(=O)[C@H](CC(C)C)NC(=O)[C@H](CC(C)C)NC(=O)CN)C(=O)N[C@@H](CCCCN)C(=O)N[C@H](C(=O)N[C@@H](CC(C)C)C(=O)N[C@@H](Cc1ccc2ccccc2c1)C(N)=O)[C@@H](C)O (H-GLLKR[hIle]KTL[2Nal]-NH2) | 9.5 µM | 9.5 µM (≈ 11.9 µg/mL) | 28.4 µM (≈ 35.5 µg/mL) | 18 µM | 22.1 µM | – |
| CC[C@H](C)C[C@H](NC(=O)[C@H](CCCNC(=N)N)NC(=O)[C@H](CCCCN)NC(=O)[C@H](CC(C)C)NC(=O)[C@H](CC(C)C)NC(=O)CN)C(=O)N[C@@H](CCCCN)C(=O)N[C@H](C(=O)N[C@@H](CC(C)C)C(=O)N[C@@H](CC1CCCCC1)C(N)=O)[C@@H](C)O (H-GLLKR[hIle]KTL[Cha]-NH2) | 28.4 µM | 26.3 µM (≈ 31.8 µg/mL) | 28.4 µM (≈ 34.3 µg/mL) | 317 µM | 12.5 µM | – |
| CC[C@H](C)C[C@H](NC(=O)[C@H](CCCNC(=N)N)NC(=O)[C@H](CCCCN)NC(=O)[C@H](CC(C)C)NC(=O)[C@H](CC(C)C)NC(=O)CN)C(=O)N[C@@H](CCCCN)C(=O)N[C@H](C(=O)N[C@@H](Cc1ccc2ccccc2c1)C(=O)N[C@@H](CC(C)C)C(N)=O)[C@@H](C)O (H-GLLKR[hIle]KT[2Nal]L-NH2) | 28.4 µM | 8.8 µM (≈ 11 µg/mL) | 28.4 µM (≈ 35.5 µg/mL) | 149 µM | 15.8 µM | – |
| CC[C@H](C)C[C@H](NC(=O)[C@H](CCCNC(=N)N)NC(=O)[C@H](CCCCN)NC(=O)[C@H](CC(C)C)NC(=O)[C@H](CC(C)C)NC(=O)CN)C(=O)N[C@@H](CCCCN)C(=O)N[C@H](C(=O)N[C@@H](CC1CCCCC1)C(=O)N[C@@H](CC(C)C)C(N)=O)[C@@H](C)O (H-GLLKR[hIle]KT[Cha]L-NH2) | 28.4 µM | 28.4 µM (≈ 34.3 µg/mL) | 47.4 µM (≈ 57.2 µg/mL) | 234 µM | 28.4 µM | – |
| CC[C@H](C)[C@H](NC(=O)[C@H](Cc1c[nH]c2ccccc12)NC(=O)[C@H](CCCCN)NC(=O)[C@H](CC(C)C)NC(=O)[C@H](CC(C)C)NC(=O)CN)C(=O)N[C@@H](CCCCN)C(=O)N[C@@H](CCCCN)C(=O)N[C@@H](CC(C)C)C(=O)N[C@@H](CC(C)C)C(N)=O (H-GLLKWIKKLL-NH2) | 9.5 µM | 3.2 µM (≈ 3.87 µg/mL) | 2.5 µM (≈ 3.03 µg/mL) | 11.6 µM | 3.2 µM | – |
| CC[C@H](C)[C@H](NC(=O)[C@H](CCCNC(=N)N)NC(=O)[C@H](CCCCN)NC(=O)[C@H](Cc1ccc2ccccc2c1)NC(=O)[C@H](CC(C)C)NC(=O)CN)C(=O)N[C@@H](CCCCN)C(=O)N[C@H](C(=O)N[C@@H](CC(C)C)C(=O)N[C@@H](CC(C)C)C(N)=O)[C@@H](C)O (H-GL[2Nal]KRIKTLL-NH2) | 9.5 µM | 9.5 µM (≈ 11.8 µg/mL) | 28.4 µM (≈ 35.1 µg/mL) | 172 µM | 28.4 µM | – |
| CC[C@H](C)C[C@H](NC(=O)[C@H](CCCNC(=N)N)NC(=O)[C@H](CCCCN)NC(=O)[C@H](CC1CCCCC1)NC(=O)[C@H](CC(C)C)NC(=O)CN)C(=O)N[C@@H](CCCCN)C(=O)N[C@H](C(=O)N[C@@H](CC(C)C)C(=O)N[C@@H](CC(C)C)C(N)=O)[C@@H](C)O (H-GL[Cha]KR[hIle]KTLL-NH2) | 28.4 µM | 28.4 µM (≈ 34.3 µg/mL) | 28.4 µM (≈ 34.3 µg/mL) | 436 µM | 28.4 µM | – |
| CC[C@H](C)[C@H](NC(=O)[C@H](CCCNC(=N)N)NC(=O)[C@H](CCCCN)NC(=O)[C@H](CC(C)C)NC(=O)[C@H](Cc1ccc2ccccc2c1)NC(=O)CN)C(=O)N[C@@H](CCCCN)C(=O)N[C@H](C(=O)N[C@@H](CC(C)C)C(=O)N[C@@H](CC(C)C)C(N)=O)[C@@H](C)O (H-G[2Nal]LKRIKTLL-NH2) | 9.5 µM | 15.8 µM (≈ 19.6 µg/mL) | 15.8 µM (≈ 19.6 µg/mL) | 52.8 µM | 15.8 µM | – |
| CC[C@H](C)C[C@H](NC(=O)[C@H](CCCNC(=N)N)NC(=O)[C@H](CCCCN)NC(=O)[C@H](CC(C)C)NC(=O)[C@H](CC1CCCCC1)NC(=O)CN)C(=O)N[C@@H](CCCCN)C(=O)N[C@H](C(=O)N[C@@H](CC(C)C)C(=O)N[C@@H](CC(C)C)C(N)=O)[C@@H](C)O (H-G[Cha]LKR[hIle]KTLL-NH2) | 28.4 µM | 15.8 µM (≈ 19.1 µg/mL) | 85.3 µM (≈ 103 µg/mL) | 195 µM | 25 µM | – |
| CC(C)C[C@@H](NC(=O)[C@@H](CC(C)C)NC(=O)[C@@H](CCCCN)NC(=O)[C@@H](CCCCN)NC(=O)[C@@H](Cc1c[nH]c2ccccc12)NC(=O)[C@@H](Cc1c[nH]c2ccccc12)NC(=O)[C@@H](CCCCN)NC(=O)[C@@H](CC(C)C)NC(=O)[C@@H](CC(C)C)NC(=O)[C@H](N)CCCCN)C(N)=O (H-[dK][dL][dL][dK][dW][dW][dK][dK][dL][dL]-NH2) | – | – | – | – | – | MIC (Bacillus subtilis [8]): 4 µM (≈ 5.42 µg/mL); MIC (Escherichia coli [9]): 64 µM (≈ 86.7 µg/mL); MIC (Staphylococcus aureus [10]): 8 µM (≈ 10.8 µg/mL); MIC (Pseudomonas aeruginosa [11]): 8 µM (≈ 10.8 µg/mL); HC10 (Erythrocyte [1]): > 200 µM |
